Key:
[1] = target: T1, CFTR (Homo sapiens, UniProt P13569, DEL508-508); assay: TECC24 AUC fold over DMSO @10 μM, CFTR-mediated transepithelial chloride transport in CF-HBE cells; assay type: cell-based; details: test agent AUC divided by DMSO vehicle AUC, primary CF-HBE cells, ΔF508 homozygous donor, 48 hours incubation
T1 construct: Primary human bronchial epithelial cells from a ΔF508 homozygous CF donor; host or cells: primary human bronchial epithelial cells (CF-HBE), ΔF508 homozygous donor
In short: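 Primary ΔF508-homozygous CF bronchial epithelial cells on inserts were incubated 48 h at 36.5 °C with compound in IL-13-containing medium. VT and TEER were then recorded in current-clamp mode (pH 7.4 HEPES bath) with benzamil 10 μM, forskolin 10 μM, then CFTR inhibitor-172 20 μM. The IEQ AUC between forskolin and inhibitor was divided by vehicle AUC.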

[2] = target: T2, NBD1 (Homo sapiens, UniProt P13569); assay: Aggregation analysis using differential static light scattering (DSLS), thermal stability of NBD1 (ΔTagg); assay type: binding; details: ΔTagg versus DMSO control, NBD1 0.2 mg/ml
T2 construct: Purified recombinant NBD1 was produced using previously described methods; made in house
T2 sequence (P13569 423-646 limits assumed): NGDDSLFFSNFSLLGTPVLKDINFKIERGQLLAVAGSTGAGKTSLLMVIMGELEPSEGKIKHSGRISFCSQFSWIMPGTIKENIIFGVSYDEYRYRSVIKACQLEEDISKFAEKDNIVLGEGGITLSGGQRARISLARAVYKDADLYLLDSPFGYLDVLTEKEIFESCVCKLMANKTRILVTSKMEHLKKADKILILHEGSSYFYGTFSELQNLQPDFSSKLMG
In short: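 Purified recombinant NBD1 at 0.2 mg/ml in Tris buffer pH7.6 with 2 mM ATP, 5 mM MgCl2, 2 mM DTT and 1% glycerol was mixed with DMSO-dissolved compounds under mineral oil. Plates were heated at 1° C. per minute to 70° C., light scattering imaged every 0.5° C.; Tagg from curve inflection, minus DMSO-control mean.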

T1 sequence (P13569 with tags, fused parts or gaps DEL508-508): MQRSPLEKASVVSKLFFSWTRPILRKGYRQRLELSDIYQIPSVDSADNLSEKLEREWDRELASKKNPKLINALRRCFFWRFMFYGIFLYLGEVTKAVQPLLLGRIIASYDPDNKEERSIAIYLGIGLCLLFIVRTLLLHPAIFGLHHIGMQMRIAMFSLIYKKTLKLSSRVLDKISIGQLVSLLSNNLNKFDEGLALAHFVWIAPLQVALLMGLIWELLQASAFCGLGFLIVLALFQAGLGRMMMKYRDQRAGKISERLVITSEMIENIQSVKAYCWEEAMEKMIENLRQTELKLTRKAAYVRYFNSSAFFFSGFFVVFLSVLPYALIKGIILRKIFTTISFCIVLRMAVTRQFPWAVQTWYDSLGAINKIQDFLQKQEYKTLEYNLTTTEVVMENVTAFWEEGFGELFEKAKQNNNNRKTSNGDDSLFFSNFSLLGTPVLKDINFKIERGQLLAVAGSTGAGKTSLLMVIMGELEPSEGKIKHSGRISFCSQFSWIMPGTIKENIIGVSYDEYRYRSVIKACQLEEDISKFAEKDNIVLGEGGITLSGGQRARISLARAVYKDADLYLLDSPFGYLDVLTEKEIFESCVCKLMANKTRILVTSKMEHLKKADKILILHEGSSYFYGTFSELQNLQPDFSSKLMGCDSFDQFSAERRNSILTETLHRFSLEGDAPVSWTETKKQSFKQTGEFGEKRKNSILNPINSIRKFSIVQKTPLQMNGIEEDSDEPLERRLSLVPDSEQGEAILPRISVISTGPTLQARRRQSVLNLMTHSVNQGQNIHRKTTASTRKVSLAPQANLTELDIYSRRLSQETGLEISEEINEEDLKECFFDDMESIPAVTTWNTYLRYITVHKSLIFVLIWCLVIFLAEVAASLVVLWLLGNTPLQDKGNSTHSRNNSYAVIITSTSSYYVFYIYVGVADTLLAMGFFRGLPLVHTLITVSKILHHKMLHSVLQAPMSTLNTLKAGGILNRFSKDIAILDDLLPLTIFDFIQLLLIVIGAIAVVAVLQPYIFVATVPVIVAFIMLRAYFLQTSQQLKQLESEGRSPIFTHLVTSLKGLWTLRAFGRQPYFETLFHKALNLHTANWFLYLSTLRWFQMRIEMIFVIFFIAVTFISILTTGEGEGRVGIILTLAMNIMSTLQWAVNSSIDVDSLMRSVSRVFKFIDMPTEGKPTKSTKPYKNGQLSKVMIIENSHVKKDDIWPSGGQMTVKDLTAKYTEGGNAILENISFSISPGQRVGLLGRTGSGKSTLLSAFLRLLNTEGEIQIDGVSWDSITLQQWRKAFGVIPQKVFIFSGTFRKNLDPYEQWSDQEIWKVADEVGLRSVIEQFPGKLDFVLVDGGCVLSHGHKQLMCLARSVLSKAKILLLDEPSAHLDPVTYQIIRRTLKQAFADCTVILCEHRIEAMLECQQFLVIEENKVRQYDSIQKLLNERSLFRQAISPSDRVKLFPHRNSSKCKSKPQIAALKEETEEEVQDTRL

Structure (SMILES) | TECC (AUC, 10 μM) [1] | DSLS 3D (100 μM ΔT) [2]
[2H]C([2H])([2H])C1(c2cccc(/C=C/C(=O)O)c2)CCCC(C)(C)CS(=O)(=O)CCc2c(c(F)cc3[nH]ccc23)Oc2ccc(F)c(c2)-c2nc1nn2C (single isomer, unassigned) [Compound 15A, (E)-3-[3-[22,28-difluoro-3,10,10-trimethyl-12,12-dioxo-6-(trideuteriomethyl)-24-oxa-12lambda6-thia-3,4,19,30-tetrazapentacyclo[23.3.1.12,5.015,23.016,20]triaconta-1(29),2(30),4,15,17,20,22,25,27-nonaen-6-yl]phenyl]prop-2-enoic Acid] | A (a TECC value less than 12 is marked “A”) | C (a value greater than 10 °C and less than or equal to 25 °C is marked “C”)
[2H]C([2H])([2H])C1(c2cccc(/C=C/C(=O)O)c2)CCCC(C)(C)CS(=O)(=O)CCc2c(c(F)cc3[nH]ccc23)Oc2ccc(F)c(c2)-c2nc1nn2C (single isomer, unassigned) [Compound 15B, (E)-3-[3-[22,28-difluoro-3,10,10-trimethyl-12,12-dioxo-6-(trideuteriomethyl)-24-oxa-12lambda6-thia-3,4,19,30-tetrazapentacyclo[23.3.1.12,5.015,23.016,20]triaconta-1(29),2(30),4,15,17,20,22,25,27-nonaen-6-yl]phenyl]prop-2-enoic Acid] | A (a TECC value less than 12 is marked “A”) | B (a value above 5 °C and less than or equal to 10 °C is marked “B”)
[2H]C([2H])([2H])C1(c2cccc(/C=C(\C)C(=O)O)c2)CCCC(C)(C)CS(=O)(=O)CCc2c(c(F)cc3[nH]ccc23)Oc2ccc(F)c(c2)-c2nc1nn2C (single isomer, unassigned) [Compound 16A, (E)-3-[3-[22,28-difluoro-3,10,10-trimethyl-12,12-dioxo-6-(trideuteriomethyl)-24-oxa-12lambda6-thia-3,4,19,30-tetrazapentacyclo[23.3.1.12,5.015,23.016,20]triaconta-1(29),2(30),4,15,17,20,22,25,27-nonaen-6-yl]phenyl]-2-methyl-prop-2-enoic acid] | A (a TECC value less than 12 is marked “A”) | A (an ΔTagg value less than or equal to 5 °C is marked “A”)
[2H]C([2H])([2H])C1(c2cccc(/C=C(\C)C(=O)O)c2)CCCC(C)(C)CS(=O)(=O)CCc2c(c(F)cc3[nH]ccc23)Oc2ccc(F)c(c2)-c2nc1nn2C (single isomer, unassigned) [Compound 16B, (E)-3-[3-[22,28-difluoro-3,10,10-trimethyl-12,12-dioxo-6-(trideuteriomethyl)-24-oxa-12lambda6-thia-3,4,19,30-tetrazapentacyclo[23.3.1.12,5.015,23.016,20]triaconta-1(29),2(30),4,15,17,20,22,25,27-nonaen-6-yl]phenyl]-2-methyl-prop-2-enoic acid] | A (a TECC value less than 12 is marked “A”) | C (a value greater than 10 °C and less than or equal to 25 °C is marked “C”)
C/C(=C\c1cc(F)cc(C2(C)CCCC(C)(C)CS(=O)(=O)CCc3c(c(F)c(F)c4[nH]ccc34)Oc3ccc(F)c(c3)-c3nc2nn3C)c1)C(=O)O (single isomer, unassigned) [Compound 17A, (E)-3-(3-fluoro-5-((Z)-26,46,47-trifluoro-11,9,9,13-tetramethyl-7,7-dioxido-11H,41H-3-oxa-7-thia-4(5,4)-indola-1(5,3)-triazola-2(1,3)-benzenacyclotridecaphane-13-yl)phenyl)-2-methylacrylic acid] | A (a TECC value less than 12 is marked “A”) | B (a value above 5 °C and less than or equal to 10 °C is marked “B”)

Reference: US12649750B2, “Macrocyclic compounds, compositions, and methods of using thereof” (Sionna Therapeutics Inc., priority 2022, dated 2026)
